Results on one compound are retold here after patent US12239729B2, “TRPV3 agonists for the treatment of skin conditions” (Soricimed Biopharma Inc., priority 2012, dated 2025).

One experiment has as its system HaCaT cells. As to the kind of experiment: Cell death assay in HaCaT cells with SOR-C13 fragments (Example 5). The experiment is classed as cell-based, human. Conditions: 100 and 1000 μM tested, 72 hours. Here is the method:
Solutions of each of the peptides listed in Table 2 were made based on formulation weight without correction of purity in PBS at a 100 mM stock concentration. Stock solutions were sterilized by passing through a 0.2 μm syringe filter prewashed with PBS. Stocks of peptides were kept in aliquots at −20° C. during the study. Glycolic acid was made in a 5M stock in PBS and filtered using a 0.2 μm syringe filter and kept at −20° C.
Human immortalized keratinocyte HaCaT cells were cultured as described in Example 3.
HaCaT cells were plated at ˜8×10^5/well in each well of the 12-well tissue culture plates in triplicates in 2 ml culture media. Twenty-four (24) hours post-plating, cells were treated with PBS, or peptide stocks at 100 and 1000 μM (in triplicates), or glycolic acid at 20 mM (single data point). The Cell Death Assay was otherwise performed as described in Example 3.

In experiment [1] the target is T1, TRPV3 channels expressed in HEK-293 cells (Homo sapiens, UniProt Q8NET8).
T1 construct: expressed in transfected cells; host or cells: HEK-293 cells, transient transfection
T1 sequence (Q8NET8 1-790): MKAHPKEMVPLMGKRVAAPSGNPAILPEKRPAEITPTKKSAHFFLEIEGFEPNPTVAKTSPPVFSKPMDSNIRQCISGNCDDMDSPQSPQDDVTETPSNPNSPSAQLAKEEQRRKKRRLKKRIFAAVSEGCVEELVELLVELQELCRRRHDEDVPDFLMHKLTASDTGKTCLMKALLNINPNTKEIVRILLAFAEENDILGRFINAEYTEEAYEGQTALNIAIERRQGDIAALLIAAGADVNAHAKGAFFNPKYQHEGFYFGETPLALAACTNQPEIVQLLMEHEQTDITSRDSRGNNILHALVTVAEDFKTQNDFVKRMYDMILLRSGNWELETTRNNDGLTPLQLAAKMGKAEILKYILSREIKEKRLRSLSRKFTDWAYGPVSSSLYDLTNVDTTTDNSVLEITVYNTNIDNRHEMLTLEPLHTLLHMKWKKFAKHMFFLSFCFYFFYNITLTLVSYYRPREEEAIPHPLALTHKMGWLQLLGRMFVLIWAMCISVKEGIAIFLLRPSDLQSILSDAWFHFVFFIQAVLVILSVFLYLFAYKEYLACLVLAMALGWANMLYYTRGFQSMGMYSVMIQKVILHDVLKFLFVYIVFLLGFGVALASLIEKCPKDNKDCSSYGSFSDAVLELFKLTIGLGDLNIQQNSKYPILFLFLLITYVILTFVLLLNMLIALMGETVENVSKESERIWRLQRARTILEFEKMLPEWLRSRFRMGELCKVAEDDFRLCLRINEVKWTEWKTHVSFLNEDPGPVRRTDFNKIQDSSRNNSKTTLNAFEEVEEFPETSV
As to the kind of experiment: Patch-clamp testing of TRPV3 channel activity in transfected HEK-293 cells. The experiment is classed as cell-based. How it is done:
SOR-C13, SOR-C27 and SOR-N54 were tested using a patch clamp screen to determine whether the peptide had any effect on the channel activity of TRPV3. Ruthenium red, a known antagonist of TRPV3 and 2-Aminoethoxydiphenyl Borate (2-APB) a known activator of TRPV3 were used as controls.
HEK 293 cells were maintained in ϕ30 mm cell culture plate in DMEM media supplemented with 10% fetal bovine serum and penicillin/streptomycin. Cells were grown in a humidified atmosphere of 95% air/5% CO2 at 37° C. in a cell culture incubator.
The cells from 70-90% confluence were prepared for transfection. For transient expression in HEK-293 cells 1 μg plasmid cDNA and pEGFP (in vivo reporter of gene expression) were used.
Recordings were performed at 20˜23° C. Currents were sampled using Digidata 1440A, amplified, and filtered at 2 kHz using Axopatch 200B, then acquired and analyzed using pClamp 10.0 (Molecular Devices, Sunny vales, CA, USA).
The pipette solution and bath solution contained 140 mM CsCl, 4 mM MgCl2, 10 mM EGTA, CsOH pH=7.3 and 130 mM NaCl, 5 mM KCl, 2 mM CaCl2), 1 mM MgCl2, 25 mM HEPES, 30 mM Glucose, pH=7.3, respectively.
Each peptide was diluted in the bath solution to the desired concentration (0.01 μM, 0.03 μM, 0.1 μM, 0.3 μM, 1 μM, 3 μM, or 10 μM), respectively.

Entries after “also recorded” stand apart in the source; their conditions may differ. Peptide text beside a SMILES is read from it.

Usually EC50 stands for the concentration needed to bring the measured effect to its halfway point. On to `CC(C)C[C@H](NC(=O)[C@H](Cc1ccccc1)NC(=O)[C@H](CCC(=O)O)NC(=O)[C@@H](N)CCCCN)C(=O)N[C@@H](Cc1cnc[nH]1)C(=O)N1CCC[C@H]1C(=O)N[C@@H](CO)C(=O)N[C@@H](CCCCN)C(=O)N[C@H](C(=O)N[C@@H](CC(=O)O)C(=O)N[C@@H](CC(C)C)C(=O)N1CCC[C@H]1C(=O)N[C@@H](CCCNC(=N)N)C(=O)O)C(C)C` [SOR-C13, KEFLHPSKVDLPR] (H-KEFLHPSKVDLPR-OH), for which the “induction of cell death (words)” value in the experiment with HaCaT cells is “no significant effect to induce cell death; also recorded: no increase in cell death above the PBS treatment”. For the same compound, in experiment [1], the 50% effective concentration (EC50) was 21.7 nM.
